Assay results: ChEMBL document CHEMBL5465560, “Selectivity Literature for EUbOPEN Chemogenomic Library” (2024)
Positions count from the first letter of the chain named.

Key:
Conditions in all cases: at 1 µM
[1] = test system: T1, Receptor-type tyrosine-protein kinase FLT3 (Homo sapiens), P36888 [D835H]; assay: (§1) Selectivity interaction (KinomeScan (DiscoverX)) EUB0000311b FLT3
T1 sequence (whole entry): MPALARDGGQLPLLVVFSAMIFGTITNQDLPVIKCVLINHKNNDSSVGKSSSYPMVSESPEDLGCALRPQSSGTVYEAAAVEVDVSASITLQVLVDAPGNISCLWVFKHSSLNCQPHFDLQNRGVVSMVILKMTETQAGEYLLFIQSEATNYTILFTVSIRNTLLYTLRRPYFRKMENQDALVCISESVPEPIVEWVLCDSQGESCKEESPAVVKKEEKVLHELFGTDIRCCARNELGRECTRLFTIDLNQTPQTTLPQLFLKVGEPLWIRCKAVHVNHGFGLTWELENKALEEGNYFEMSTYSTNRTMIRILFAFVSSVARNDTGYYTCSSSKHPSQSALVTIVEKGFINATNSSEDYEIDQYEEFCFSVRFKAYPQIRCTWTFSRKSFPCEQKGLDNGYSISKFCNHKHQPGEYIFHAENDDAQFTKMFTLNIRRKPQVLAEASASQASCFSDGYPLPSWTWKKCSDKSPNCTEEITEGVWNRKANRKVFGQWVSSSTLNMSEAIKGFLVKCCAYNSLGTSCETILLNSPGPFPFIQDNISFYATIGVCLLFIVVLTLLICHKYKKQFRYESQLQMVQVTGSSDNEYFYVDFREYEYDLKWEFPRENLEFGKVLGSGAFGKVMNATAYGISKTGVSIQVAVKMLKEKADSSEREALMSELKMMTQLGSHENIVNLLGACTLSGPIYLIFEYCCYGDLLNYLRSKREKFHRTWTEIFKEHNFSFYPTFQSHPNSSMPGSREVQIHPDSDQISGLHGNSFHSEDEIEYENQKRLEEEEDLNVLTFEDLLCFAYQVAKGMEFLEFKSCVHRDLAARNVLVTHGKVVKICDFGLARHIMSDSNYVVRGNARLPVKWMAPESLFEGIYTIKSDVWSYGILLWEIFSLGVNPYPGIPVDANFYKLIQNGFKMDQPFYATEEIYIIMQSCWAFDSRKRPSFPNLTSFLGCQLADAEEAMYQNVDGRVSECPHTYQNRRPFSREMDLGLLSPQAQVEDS

[2] = test system: T2, Receptor-type tyrosine-protein kinase FLT3 (Homo sapiens), P36888 [D835V]; assay: as §1
T2 sequence (whole entry): T1 sequence (whole entry) with H835V

[3] = test system: T3, Receptor-type tyrosine-protein kinase FLT3 (Homo sapiens), P36888 [D835Y]; assay: as §1
T3 sequence (whole entry): T1 sequence (whole entry) with H835Y

SMILES: CCc1ccccc1C(=O)Nc1n[nH]c2c(C)c(F)c(C3C(C#N)=C(C)N(C)C(C)=C3C#N)cc12 [BAY-3827]
- % of control [1]: 16%
- % of control [2]: 3.2%
- % of control [3]: 2.5%
